Assays:
human recombinant PDE5 = human recombinant PDE5 (Homo sapiens, UniProt O76074); test: Inhibitory effect on cGMP-PDE (PDE5 IC50, one-step assay); assay type: biochemical; conditions: human recombinant PDE5, 0.15 μM 8-[H3]-cGMP, 30 minutes incubation
Description: The compounds of structural formula (I) were tested for an ability to inhibit PDE5. The ability of a compound to inhibit PDE5 activity is related to the IC50 value for the compound, i.e., the concentration of inhibitor required for 50% inhibition of enzyme activity. The IC50 value for compounds of structural formula (I) were determined using recombinant human PDE5.
cGMP-PDE activity of compounds of the present invention was measured using a one-step assay adapted from Wells et al., Biochim. Biophys. Acta, 384, 430 (1975). The reaction medium contained 50 mM Tris-HCl, pH 7.5, 5 mM magnesium acetate, 250 μg/ml 5′-Nucleotidase, 1 mM EGTA, and 0.15 μM 8-[H^3]-cGMP. Unless otherwise indicated, the enzyme used was a human recombinant PDE5 (ICOS Corp., Bothell, Wash.).
Compounds of the invention were dissolved in DMSO finally present at 2% in the assay.

IC50 (human recombinant PDE5) [nM] | melting point [°C] | Compound
167 |  | O=C(Nc1ccccc1)C(=O)N1CCc2c([nH]c3ccccc23)[C@H]1c1ccc2c(c1)OCO2 [Example 1, (1R)-2-(1-benzo[1,3]dioxol-5-yl-1,3,4,9-tetrahydro-β-carbolin-2-yl)-2-oxo-N-phenylacetamide]
51 | 197 | S=C(NCc1ccccc1)N1CCc2c([nH]c3ccccc23)C1c1ccc2c(c1)OCO2 (stereo not drawn) [Example 2a, 1-benzo[1,3]dioxol-5-yl-1,3,4,9-tetrahydro-β-caboline-2-carbothioic acid benzylamide]
40 | 205 to 207 | S=C(NCc1ccccc1)N1CCc2c([nH]c3ccccc23)[C@H]1c1ccc2c(c1)OCO2 [Example 2b, (1R)-1-benzo[1,3]dioxol-5-yl-1,3,4,9-tetrahydro-β-carboline-2-carbothioic acid benzylamide]
800 |  | O=C(NCc1ccccc1)N1CCc2c([nH]c3ccccc23)C1c1ccccc1 (centres unmarked) [Example 4]
400 |  | O=C(Nc1ccccc1)N1CCc2c([nH]c3ccccc23)C1c1ccccc1 (centres unmarked) [Example 5]
400 |  | O=C(Nc1cccc2ccccc12)N1CCc2c([nH]c3ccccc23)C1c1ccccc1 (centres unmarked) [Example 6]
850 |  | O=C(NC1CCCCC1)N1CCc2c([nH]c3ccccc23)C1c1ccc2c(c1)OCO2 (centres unmarked) [Example 7]
13 | 120 to 121 | C[C@H](NC(=O)N1CCc2c([nH]c3ccccc23)[C@H]1c1ccc2c(c1)OCO2)c1ccccc1 [Example 10, (1R)-benzo[1,3]dioxol-5-yl-1,3,4,9-tetrahydro-β-carboline-2-carboxylic acid (1S)-(phenylethyl)amide]
49 |  | O=C(NC(=O)N1CCc2c([nH]c3ccccc23)[C@H]1c1ccc2c(c1)OCO2)c1ccccc1 [Example 12, N-((1R)-1-benzo[1,3]dioxol-5-yl-1,3,4,9-tetrahydro-β-carboline-2-carbonyl)benzamide]
17 |  | O=C(OCc1ccccc1)N1CCc2c([nH]c3ccccc23)C1c1ccc2c(c1)OCO2 (stereo not drawn) [Example 15a, 1-benzo[1,3]dioxol-5-yl-1,3,4,9-tetrahydro-β-carboline-2-carboxylic acid benzyl ester]
9 |  | O=C(OCc1ccccc1)N1CCc2c([nH]c3ccccc23)[C@H]1c1ccc2c(c1)OCO2 [Example 15b, (1R)-1-benzo[1,3]dioxol-5-yl-1,3,4,9-tetrahydro-β-carboline-2-carboxylic acid benzyl ester]
209 | 116 to 118 | O=C(C=C1CCCCC1)N1CCc2c([nH]c3ccccc23)[C@H]1c1ccc2c(c1)OCO2 [Example 16]
29 |  | O=C(CC(=O)N1CCc2c([nH]c3ccccc23)[C@H]1c1ccc2c(c1)OCO2)c1ccccc1 [Example 17, (1R)-1-(1-benzo[1,3]dioxol-5-yl-1,3,4,9-tetrahydro-β-carbolin-2-yl)-3-phenylpropane-1,3-dione]
1 |  | COC(=O)N1CCc2c([nH]c3ccccc23)C1c1ccccc1 (centres unmarked) [Example 19]
1 |  | COC(=O)CCCC(=O)N1CCc2c([nH]c3ccccc23)C1c1ccccc1 (centres unmarked) [Example 20]
180 |  | COc1ccc(C2c3[nH]c4ccccc4c3CCN2C(=O)CCCC(=O)O)cc1Cl (centres unmarked) [Example 21]
150 |  | O=C(O)CCCC(=O)N1CCc2c([nH]c3ccccc23)C1c1ccc2c(c1)OCO2 (centres unmarked) [Example 22]
177 | 123 to 128 | S=C(NCc1ccccc1Cl)N1CCc2c([nH]c3ccccc23)[C@H]1c1ccc2c(c1)OCO2 [Example 24, (1R)-benzo[1,3]dioxol-5-yl-1,3,4,9-tetrahydro-β-carboline-2-carbothioic acid 2-chlorobenzylamide]

IC50 (human recombinant PDE5) [nM] | melting point [°C] | Compound
126 | 124 to 127 | S=C(NCc1ccc(Cl)cc1Cl)N1CCc2c([nH]c3ccccc23)[C@H]1c1ccc2c(c1)OCO2 [Example 25, (1R)-benzo[1,3]dioxol-5-yl-1,3,4,9-tetrahydro-β-carboline-2-carbothioic acid 2,4-dichlorobenzylamide]
40 |  | Fc1ccccc1CNC(=S)N1CCc2c([nH]c3ccccc23)[C@H]1c1ccc2c(c1)OCO2 [Example 26]
196 | 117 to 121 | C[C@H](NC(=S)N1CCc2c([nH]c3ccccc23)[C@H]1c1ccc2c(c1)OCO2)c1ccccc1 [Example 27]
36 |  | O=C(O)c1ccc(CNC(=S)N2CCc3c([nH]c4ccccc34)[C@H]2c2ccc3c(c2)OCO3)cc1 [Example 28, (1R)-4-{[(1-benzo[1,3]dioxol-5-yl-1,3,4,9-tetrahydro-β-carboline-2-carbthiolyl)-amino]methyl}benzoic acid]
469 | 218 to 220 | O=C(O)c1cccc(CNC(=S)N2CCc3c([nH]c4ccccc34)[C@H]2c2ccc3c(c2)OCO3)c1 [Example 29, (1R)-3-{[(1-benzo[1,3]dioxol-5-yl-1,3,4,9-tetrahydro-β-carboline-2-carbthiolyl)amino]methyl}benzoic acid]
83 |  | FC(F)(F)c1cc(NC(=S)N2CCc3c([nH]c4ccccc34)[C@H]2c2ccc3c(c2)OCO3)ccc1Cl [Example 30, (1R)-benzo[1,3]dioxol-5-yl-1,3,4,9-tetrahydro-β-carboline-2-carbothioic acid (4-chloro-3-trifuloromethylphenyl)amide]
518 |  | FC(F)(F)c1ccccc1NC(=S)N1CCc2c([nH]c3ccccc23)[C@H]1c1ccc2c(c1)OCO2 [Example 31, (1R)-benzo[1,3]dioxol-5-yl-1,3,4,9-tetrahydro-β-carboline-2-carbothioic acid (2-trifluoromethylphenyl)amide]
51 |  | S=C(NCc1ccc(Cl)cc1)N1CCc2c([nH]c3ccccc23)[C@H]1c1ccc2c(c1)OCO2 [Example 32, (1R)-benzo[1,3]dioxol-5-yl-1,3,4,9-tetrahydro-β-carboline-2-carbothioic acid 4-chlorobenzylamide]
75 | 179 to 181 | Fc1cccc(CNC(=S)N2CCc3c([nH]c4ccccc34)[C@H]2c2ccc3c(c2)OCO3)c1 [Example 33, (1R)-benzo[1,3]dioxol-5-yl-1,3,4,9-tetrahydro-β-carboline-2-carbothioic acid 3-fluorobenzylamide]
512 |  | S=C(NCc1ccc(Cl)c(Cl)c1)N1CCc2c([nH]c3ccccc23)[C@H]1c1ccc2c(c1)OCO2 [Example 34, (1R)-benzo[1,3]dioxol-5-yl-1,3,4,9-tetrahydro-β-carboline-2-carbothioic acid 3,4-dichlorobenzylamide]
122 | 137 to 139 | Fc1ccc(CNC(=S)N2CCc3c([nH]c4ccccc34)[C@H]2c2ccc3c(c2)OCO3)cc1 [Example 35, (1R)-benzo[1,3]dioxol-5-yl-1,3,4,9-tetrahydro-β-carboline-2-carbothioic acid 4-fluorobenzylamide]
494 | 189 to 191 | S=C(NCc1cccc(Cl)c1)N1CCc2c([nH]c3ccccc23)[C@H]1c1ccc2c(c1)OCO2 [Example 36, (1R)-benzo[1,3]dioxol-5-yl-1,3,4,9-tetrahydro-β-carboline-2-carbothioic acid 3-chlorobenzylamide]
30 | 138 to 142 | Cc1ccc(CNC(=S)N2CCc3c([nH]c4ccccc34)[C@H]2c2ccc3c(c2)OCO3)cc1C [Example 37, (1R)-benzo[1,3]dioxol-5-yl-1,3,4,9-tetrahydro-β-carboline-2-carbothioic acid 3,4-dimethylbenzylamide]
379 | 207 to 208 | O=C(NC(=S)N1CCc2c([nH]c3ccccc23)C1c1ccc2c(c1)OCO2)c1ccccc1 (centres unmarked) [Example 38]
119 | 111 to 113 | S=C(NCc1cccc2ccccc12)N1CCc2c([nH]c3ccccc23)[C@H]1c1ccc2c(c1)OCO2 [Example 39, (1R)-1-benzo[1,3]dioxol-5-yl-1,3,4,9-tetrahydro-β-carboline-2-carbothioic acid (naphthalen-1-yl-methyl)amide]
56 | 97 to 100 | S=C(NCc1ccc2c(c1)OCO2)N1CCc2c([nH]c3ccccc23)[C@H]1c1ccc2c(c1)OCO2 [Example 40, (1R)-1-benzo-[1,3]dioxol-5-yl-1,3,4,9-tetrahydro-β-carboline-2-carbothioic acid (benzo[1,3]dioxol-5-yl-methyl)amide]
675 | 191 to 192 | O=S(=O)(/C=C/c1ccccc1)N1CCc2c([nH]c3ccccc23)C1c1ccc2c(c1)OCO2 (stereo not drawn) [Example 41a, 1-benzo[1,3]dioxol-5-yl-2-(2-phenylethenesulfonyl)-2,3,4,9-tetrahydro-1H-β-carboline]
413 | 193 to 194 | O=S(=O)(/C=C/c1ccccc1)N1CCc2c([nH]c3ccccc23)[C@H]1c1ccc2c(c1)OCO2 [Example 41b, (1R)-1-benzo[1,3]dioxol-5-yl-2-(2-phenylethenesulfonyl)-2,3,4,9-tetrahydro-1H-β-carboline]

Source: US7122554B2, “Carboline derivatives” (Lilly Icos LLC., priority 2001, dated 2006)
